Read-outs that look alike come from different tables or passages of the source.
Columns and labels:
Assay in all cases: cells
PaTu-8988-T [1] = tested on: PaTu-8988-T; set-up: ATPlite luminescence viability of PDAC cell lines, 11-dose single-agent curves, 4-parameter fit; details: Homo sapiens, PaTu 8988t, 72 h, read-out: EC50 [nM]
In short: (§1)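 Drug-combination screening used cells plated at 1000 to 5000 per well one day before treatment. Final DMSO was 0.2%. Each plate held untreated negative-control wells and 5 µM staurosporine positive-control wells.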

FAMPAC [2] = tested on: FAMPAC; set-up: ATPlite luminescence viability of PDAC cell lines, 11-dose single-agent curves, 4-parameter fit; details: 72 h, read-out: EC50 [nM]
In short: as §1

AsPC-1 [3] = tested on: AsPC-1; set-up: ATPlite luminescence viability of PDAC cell lines, 11-dose single-agent curves, 4-parameter fit; details: Homo sapiens, ASPC1, 72 h, read-out: EC50 [nM]
In short: as §1

Colo-357 [4] = tested on: Colo-357; set-up: ATPlite luminescence viability of PDAC cell lines, 11-dose single-agent curves, 4-parameter fit; details: Homo sapiens, COLO357, 72 h, read-out: EC50 [nM]
In short: as §1

Suit2-07 [5] = tested on: Suit2-07; set-up: ATPlite luminescence viability of PDAC cell lines, 11-dose single-agent curves, 4-parameter fit; details: 72 h, read-out: EC50 [nM]
In short: as §1

HPDE [6] = tested on: HPDE; set-up: ATPlite luminescence viability of PDAC cell lines, 11-dose single-agent curves, 4-parameter fit; details: HPDE, 72 h, read-out: EC50 [nM]
In short: as §1

BxPC-3 [7] = tested on: BxPC-3; set-up: ATPlite luminescence viability of PDAC cell lines, 11-dose single-agent curves, 4-parameter fit; details: Homo sapiens, BXPC-3, 72 h, read-out: EC50 [nM]
In short: as §1

Dan-G [8] = tested on: Dan-G; set-up: ATPlite luminescence viability of PDAC cell lines, 11-dose single-agent curves, 4-parameter fit; details: 72 h, read-out: EC50 [nM]
In short: as §1

MiaPaCa-2 [9] = tested on: MiaPaCa-2; set-up: ATPlite luminescence viability of PDAC cell lines, 11-dose single-agent curves, 4-parameter fit; details: Homo sapiens, MIA PaCa-2, 72 h, read-out: EC50 [nM]
In short: as §1

HuP-T4 = tested on: HuP-T4; set-up: Viability of PDAC cell lines, ATPlite luminescence, 11-dose single-agent curve fit; details: Homo sapiens, HuP-T4, 72 h, read-out: EC50 [nM]
In short: (§2)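 screening used cells plated at 1000 to 5000 per well one day before treatment. Final DMSO was 0.2%. Each plate held untreated negative-control wells and 5 µM staurosporine positive-control wells.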

PSN-1 [10] = tested on: PSN-1; set-up: Viability of PDAC cell lines, ATPlite luminescence, 11-dose single-agent curve fit; details: Homo sapiens, PSN1, 72 h, read-out: EC50 [nM]
In short: as §2

Capan-1 [11] = tested on: Capan-1; set-up: Viability of PDAC cell lines, ATPlite luminescence, 11-dose single-agent curve fit; details: Homo sapiens, CAPAN-1, 72 h, read-out: EC50 [nM]
In short: as §2

PANC-1 = tested on: PANC-1; set-up: Viability of PDAC cell lines, ATPlite luminescence, 11-dose single-agent curve fit; details: Homo sapiens, PANC-1, 72 h, read-out: EC50 [nM]
In short: as §2

PaTu-8988-T [12] = tested on: PaTu-8988-T; set-up: Viability of PDAC cell lines, ATPlite luminescence, 11-dose single-agent curve fit; details: Homo sapiens, PaTu 8988t, 72 h, read-out: EC50 [nM]
In short: as §2

FAMPAC [13] = tested on: FAMPAC; set-up: Viability of PDAC cell lines, ATPlite luminescence, 11-dose single-agent curve fit; details: 72 h, read-out: EC50 [nM]
In short: as §2

AsPC-1 [14] = tested on: AsPC-1; set-up: Viability of PDAC cell lines, ATPlite luminescence, 11-dose single-agent curve fit; details: Homo sapiens, ASPC1, 72 h, read-out: EC50 [nM]
In short: as §2

Colo-357 [15] = tested on: Colo-357; set-up: Viability of PDAC cell lines, ATPlite luminescence, 11-dose single-agent curve fit; details: Homo sapiens, COLO357, 72 h, read-out: EC50 [nM]
In short: as §2

Suit2-07 [16] = tested on: Suit2-07; set-up: Viability of PDAC cell lines, ATPlite luminescence, 11-dose single-agent curve fit; details: 72 h, read-out: EC50 [nM]
In short: as §2

Dan-G [17] = tested on: Dan-G; set-up: Viability of PDAC cell lines, ATPlite luminescence, 11-dose single-agent curve fit; details: 72 h, read-out: EC50 [nM]
In short: as §2

MiaPaCa-2 [18] = tested on: MiaPaCa-2; set-up: Viability of PDAC cell lines, ATPlite luminescence, 11-dose single-agent curve fit; details: Homo sapiens, MIA PaCa-2, 72 h, read-out: EC50 [nM]
In short: as §2

BxPC-3 [19] = tested on: BxPC-3; set-up: Viability of PDAC cell lines, ATPlite luminescence, 11-dose single-agent curve fit; details: Homo sapiens, BXPC-3, 72 h, read-out: EC50 [nM]
In short: as §2

PSN-1 [20] = tested on: PSN-1; set-up: ATPlite luminescence viability of PDAC cell lines, 11-dose single-agent curves, 4-parameter fit; details: Homo sapiens, PSN1, 72 h, read-out: EC50 [nM]
In short: as §1

Capan-1 [21] = tested on: Capan-1; set-up: ATPlite luminescence viability of PDAC cell lines, 11-dose single-agent curves, 4-parameter fit; details: Homo sapiens, CAPAN-1, 72 h, read-out: EC50 [nM]
In short: as §1

HPDE [22] = tested on: HPDE; set-up: Viability of PDAC cell lines, ATPlite luminescence, 11-dose single-agent curve fit; details: HPDE, 72 h, read-out: EC50 [nM]
In short: as §2

Compound | EC50 (AsPC-1 [3]) [nM] | EC50 (Colo-357 [4]) [nM] | EC50 (BxPC-3 [7]) [nM] | EC50 (MiaPaCa-2 [9]) [nM] | EC50 (PANC-1) [nM] | EC50 (AsPC-1 [14]) [nM] | EC50 (Colo-357 [15]) [nM] | EC50 (BxPC-3 [19]) [nM] | EC50 (PaTu-8988-T [1]) [nM] | EC50 (FAMPAC [2]) [nM] | EC50 (Suit2-07 [5]) [nM] | EC50 (HPDE [6]) [nM] | EC50 (Dan-G [8]) [nM] | EC50 (HuP-T4) [nM] | EC50 (PSN-1 [10]) [nM] | EC50 (Capan-1 [11]) [nM] | EC50 (PaTu-8988-T [12]) [nM] | EC50 (FAMPAC [13]) [nM] | EC50 (Suit2-07 [16]) [nM] | EC50 (Dan-G [17]) [nM] | other results
CNC(=O)c1cccc2cc(Oc3ccnc4cc(OCC5(N)CC5)c(OC)cc34)ccc12 [Lucitanib] | – | – | – | – | 2920 | 8920 | > 10000 | 9500 | – | – | – | 9210 | – | > 10000 | 8180 | > 10000 | 5920 | > 10000 | 5330 | 665 | EC50 (MiaPaCa-2 [18]): > 10000 nM
NC(=O)c1cccc2cn(-c3ccc([C@@H]4CCCNC4)cc3)nc12 [Niraparib] | – | 1160 | – | 2020 | 3580 | > 10000 | – | 1010 | – | 3370 | 1010 | – | 1710 | 10.5 | – | – | 4150 | – | – | – | EC50 (PSN-1 [20]): 1740 nM; EC50 (Capan-1 [21]): 3180 nM; EC50 (HPDE [22]): 4720 nM
CCn1c(=O)c(-c2cc(NC(=O)Nc3ccccc3)c(F)cc2Br)cc2cnc(NC)cc21 [Ripretinib] | 1270 | – | 467 | 589 | > 10000 | – | 611 | – | 717 | 912 | 431 | 901 | 501 | 592 | – | 758 | – | – | – | – | EC50 (PSN-1 [20]): 582 nM
CS(=O)(=O)CCNCc1ccc(-c2ccc3ncnc(Nc4ccc(OCc5cccc(F)c5)c(Cl)c4)c3c2)o1 [Lapatinib] | – | 815 | – | – | > 10000 | > 10000 | – | 8320 | – | – | – | > 10000 | 3780 | > 10000 | > 10000 | > 10000 | > 10000 | > 10000 | 7910 | – | EC50 (MiaPaCa-2 [18]): > 10000 nM
C[C@]1(O)C[C@@H](c2nc(-c3ccc4ccc(-c5ccccc5)nc4c3)c3c(N)nccn32)C1 [Linsitinib] | 1540 | – | – | 416 | > 10000 | – | 4180 | > 10000 | – | – | 239 | 7060 | – | 21.6 | 7340 | 1750 | 6100 | 4850 | – | 3840 | –

Further lines, with some results ahead:

EC50 (AsPC-1 [3]) [nM] | EC50 (Colo-357 [4]) [nM] | EC50 (BxPC-3 [7]) [nM] | EC50 (MiaPaCa-2 [9]) [nM] | EC50 (PANC-1) [nM] | EC50 (AsPC-1 [14]) [nM] | EC50 (Colo-357 [15]) [nM] | EC50 (BxPC-3 [19]) [nM] | Compound | EC50 (PaTu-8988-T [1]) [nM] | EC50 (FAMPAC [2]) [nM] | EC50 (Suit2-07 [5]) [nM] | EC50 (HPDE [6]) [nM] | EC50 (Dan-G [8]) [nM] | EC50 (HuP-T4) [nM] | EC50 (PSN-1 [10]) [nM] | EC50 (Capan-1 [11]) [nM] | EC50 (PaTu-8988-T [12]) [nM] | EC50 (FAMPAC [13]) [nM] | EC50 (Suit2-07 [16]) [nM] | EC50 (Dan-G [17]) [nM] | other results
> 10000 | 6050 | 3600 | > 10000 | 3860 | – | – | – | COc1cc2/c(=N/c3ccc(Br)cc3F)nc[nH]c2cc1OCC1CCN(C)CC1 [Vandetanib] | > 10000 | > 10000 | > 10000 | 1520 | > 10000 | 23.9 | > 10000 | > 10000 | – | – | – | – | –
– | – | > 10000 | – | 3410 | 300 | 2200 | – | C=CC(=O)N1CCC([C@@H]2CCNc3c(C(N)=O)c(-c4ccc(Oc5ccccc5)cc4)nn32)CC1 [Zanubrutinib] | – | – | – | 3010 | – | 796 | 132 | 2290 | 547 | 75.9 | 7180 | 578 | EC50 (MiaPaCa-2 [18]): 9130 nM
> 10000 | – | 2840 | 2340 | > 10000 | – | 10100 | – | CCN(CC)CCNC(=O)c1c(C)[nH]c(/C=C2\C(=O)Nc3ccc(F)cc32)c1C [Sunitinib] | 2190 | 5670 | 3180 | 5050 | 4120 | 114 | – | > 10000 | – | – | – | – | EC50 (PSN-1 [20]): 5160 nM
